Here are results for 53 sequences from the OligoGym collection.

The series has as its target HSD17B13. To be noted: ASO, HepaRG.

After the bases stand the sugars from the 5' end (letter, count) and the backbone: PS all phosphorothioate, else s phosphorothioate and o phosphodiester by linkage. Methylation of C is not given here. e = 2'-O-(2-methoxyethyl) (MOE); k = constrained ethyl (cEt); d = 2'-deoxy (DNA); m = 2'-O-methyl

In the case of GCAGAAATTCACCTTG (sugars k3 d10 k3, PS), the target mRNA inhibition worked out at 5% (0.02 µM); 19% (0.078 µM); 26% (0.313 µM); 74% (1 µM); 70% (1.25 µM); 88% (5 µM). The sequence “GCAGTTATTAGAAGTC (sugars k3 d9 k3 e1, PS)” displayed a target mRNA inhibition (1 µM) of 67%.

Consider GCAGTTATTAGAAGTC (sugars k3 d10 k3, PS), for which the target mRNA inhibition reads like this: (0.02 µM) 9%; (0.078 µM) 22%; (0.313 µM) 41%; (1 µM) 76%; (1.25 µM) 74%; (5 µM) 84%. On to GCATACTTATTAAGTA (sugars k3 d10 k3, PS), for which, where the note is “1 µM”, the target mRNA inhibition is 32%. Regarding “GCATCAAGACATTCTA (sugars kkdddddddddkekek, PS)”, where the note is “1 µM”, the target mRNA inhibition turned out to be 43%.

The sequence “GCATUAATGCCACCCT (sugars k3 d1 m1 d8 k3, PS)” displayed a target mRNA inhibition (1 µM) of 32%.

As to GCCAAACTGCTACTGT (sugars k3 d10 k3, PS), the target mRNA inhibition was 1% (0.02 µM); 13% (0.078 µM); 41% (0.313 µM); 73% (1 µM); 63% (1.25 µM); 76% (5 µM). As to GCCAAGCTTTGTGTCA (sugars k3 d10 k3, PS), the target mRNA inhibition (1 µM) stood at 64%. With GCCAATTCACATATGT (sugars k3 d10 k3, PS), under “1 µM”, the target mRNA inhibition amounted to 34%. The same measure, in the same setting: the result for GCCTAGTTTTCGGCAC (sugars k3 d10 k3, PS) reads 12%; that for “GCCTTGAATAGCAAGC (sugars k3 d9 k3 e1, PS)”, 38%; that for GCCTTGAATAGCAAGC (sugars k3 d10 k3, PS), 32%. Regarding “GCCTUGAATAGCAAGC (sugars k3 d1 m1 d8 k3, PS)”, the target mRNA inhibition (1 µM) was 12%. As for GCGGCAAATTTGCTGG (sugars k3 d10 k3, PS), the target mRNA inhibition (1 µM) is 0%.

Consider “GCTACTTGAACAGTCT (sugars kkdddddddddkekek, PS)”, for which the target mRNA inhibition (1 µM) was found to be 64%. GCTAGACAATTGCAAA (sugars k3 d10 k3, PS): the target mRNA inhibition (1 µM) amounted to 77%. Under “1 µM”, GCTAGTAATTGCATCT (sugars k3 d10 k3, PS) gave a target mRNA inhibition of 47%.

The sequence “GCTAGTGCCAAACCAA (sugars k3 d9 k3 e1, PS)” displayed a target mRNA inhibition (1 µM) of 70%. Still for that read-out and setting: to GCTATAACTGGAAGGA (sugars k3 d10 k3, PS) belongs 58%; to “GCTCCATAATAATAGC (sugars k3 d1 m1 d8 k3, PS)”, 16%. Under “1 µM”, GCTCTAATGTTTCTTG (sugars k3 d10 k3, PS) gave a target mRNA inhibition of 62%. In the case of GCTCTATTGGGCCAGG (sugars k3 d10 k3, PS), the target mRNA inhibition (1 µM) is 47%. As for GCTGAGTGGATTACAT (sugars k3 d10 k3, PS), the target mRNA inhibition (1 µM) came to 44%. In the case of “GCTGCTAGTGCCAAAC (sugars k3 d9 k3 e1, PS)”, for the setting “1 µM”, the target mRNA inhibition turned out to be 62%. As to GCTGGAACAATATGGG (sugars k3 d10 k3, PS), the target mRNA inhibition (1 µM) is 36%.

“GCTGTAAGAGTCAGTA (sugars k3 d9 k3 e1, PS)” registered a target mRNA inhibition (1 µM) of 52%. For “GCTGTAAGAGTCAGTA (sugars kkdddddddddkekek, PS)”, the target mRNA inhibition (1 µM) worked out at 42%. Still for that read-out and setting: the result for GCTTAGTTCTTAATTA (sugars k3 d10 k3, PS) reads 28%. On to GCTTTGAAGACAATAC (sugars k3 d10 k3, PS), for which, for the setting “1 µM”, the target mRNA inhibition was 42%. Turning to “GCTTUTGTCCACCTTT (sugars k3 d1 m1 d8 k3, PS)”, the target mRNA inhibition runs as follows: (0.02 µM) 0%; (0.078 µM) 0%; (0.313 µM) 13%; (1 µM) 75%; (1.25 µM) 70%; (5 µM) 89%. For the setting “1 µM”, GGAAAGGATATTTGGC (sugars k3 d10 k3, PS) returned a target mRNA inhibition of 58%. In the case of GGAAATTCACAATCTA (sugars k3 d10 k3, PS), the target mRNA inhibition (1 µM) is 22%.

For “GGAATGCTACTTGAAC (sugars kkdddddddddkekek, PS)”, the target mRNA inhibition (1 µM) was 49%.

For the sequence GGACCAATATAATCCA (sugars k3 d10 k3, PS), the target mRNA inhibition (1 µM) turned out to be 20%. For the setting “1 µM”, GGACCAGGGAATTTAT (sugars k3 d10 k3, PS) yielded a target mRNA inhibition of 55%. With GGACTTCAGAGTTATA (sugars k3 d10 k3, PS), under “1 µM”, the target mRNA inhibition is 36%. For GGAGCTAGATACTCAA (sugars k3 d10 k3, PS), the target mRNA inhibition (1 µM) worked out at 42%. On to GGAGGAGGTACTGTCT (sugars k3 d10 k3, PS), for which the target mRNA inhibition (1 µM) was found to be 44%. For GGAGTACTTCACAATT (sugars k3 d10 k3, PS), the target mRNA inhibition is 20% (0.02 µM); 25% (0.078 µM); 42% (0.313 µM); 79% (1 µM); 75% (1.25 µM); 87% (5 µM). In the case of GGAGTAGATGATGGTG (sugars k3 d10 k3, PS), the target mRNA inhibition (1 µM) amounted to 31%. Take GGAGTCGGATTATTTT (sugars k3 d10 k3, PS): where the note is “1 µM”, the target mRNA inhibition came out at 41%. Same read-out and setting: to GGATATGTCATCTAAA (sugars k3 d10 k3, PS) belongs 68%. GGATGTTAGGACCCAG (sugars k3 d10 k3, PS) showed a target mRNA inhibition (0.02 µM) of 4%; a target mRNA inhibition (0.078 µM) of 18%; a target mRNA inhibition (0.313 µM) of 69%; a target mRNA inhibition (1 µM) of 81%; a target mRNA inhibition (1.25 µM) of 89%; a target mRNA inhibition (5 µM) of 93%. For the sequence GGATTTCTAGGATGAT (sugars k3 d10 k3, PS), under “1 µM”, the target mRNA inhibition was determined as 58%. GGCCGCACACTGAAGC (sugars k3 d10 k3, PS) yielded a target mRNA inhibition (1 µM) of 9%.

On to GGCCTGAAGTTCTGAT (sugars k3 d10 k3, PS), for which, under “1 µM”, the target mRNA inhibition was 0%. Take “GGCTACAGATTGGAAT (sugars kkdddddddddkekek, PS)”: the target mRNA inhibition by setting is: (0.02 µM) 16%; (0.078 µM) 0%; (0.313 µM) 27%; (1 µM) 73%; (1.25 µM) 62%; (5 µM) 83%. GGCTAGGATTAATCAT (sugars k3 d10 k3, PS): the target mRNA inhibition (1 µM) came out at 44%. As to GGCTATAGTAATTGCT (sugars k3 d10 k3, PS), the target mRNA inhibition (1 µM) amounted to 13%. As for GGCTGTAAGAGTCAGT (sugars k3 d10 k3, PS), the target mRNA inhibition runs as follows: (0.02 µM) 0%; (0.078 µM) 0%; (0.313 µM) 0%; (1 µM) 88%; (1.25 µM) 51%; (5 µM) 42%. Sequence GGCTTTATCATTCTAA (sugars k3 d10 k3, PS) showed a target mRNA inhibition (1 µM) of 20%. On the same count and under the same terms, the result for GGGAAATTGTTGCTGT (sugars k3 d10 k3, PS) reads 42%. Same read-out and setting: the result for GGGAATGCTCATATTA (sugars k3 d10 k3, PS) reads 18%.
